From patent publication US8263344B2, “Compounds regulating calreticulin, KDEL receptor and/or Erp-57 cell surface exposure and uses thereof to evaluate the efficiency of a cancer treatment” (Institut Gustave Roussy, priority 2006, dated 2012)

Legend:
[1] = test system: CT26 tumours; test: Single intratumoural injection into established CT26 tumours, athymic mice; set-up: species or system nu/nu Balb/c mice; conditions: mouse, in vivo
[2] = test system: MCA205, B16F10, J558; test: CRT exposure on a panel of murine tumour cell lines; format: cell-based
[3] = test system: CT26 tumours; test: Single intratumoural injection into established CT26 tumours, immunocompetent mice; format: in vivo, BALB/c mice; conditions: for therapeutic effect of intratumoural injection, single agent, immunocompetent mice: established 14-day-old CT26 tumours; for therapeutic effect combined with a cell death inducer (etoposide or mitomycin C), immunocompetent mice: intratumoural
[4] = test system: HeLa, A549, HCT116; test: CRT exposure on a panel of human tumour cell lines; format: cell-based
[5] = test system: CT26 cells; test: Fluorescence detection of cell surface CRT; format: cell-based, murine
Experimental: CT26 cells were cultured at 37° C. under 5% CO2 in RPMI 1640 medium supplemented with 10% FCS, penicillin, streptomycin, 1 mM pyruvate and 10 mM HEPES in the presence of doxorubicin (DX; 24 h, 25 μM), mitoxantrone (Mitox; 24 h, 1 μM, Sigma), idarubicin (24 h, 1 μM, Aventis, France), mitomycin C (30 μM, 48 h; Sanofi-Synthelabo, France), and/or zVAD-fmk (50 μM, 24 h; Bachem), tunicamycin (24 h, 65 μM), thapsigargin (24 h, 30 μM), brefeldin A (24 h, 50 μM, Sigma), etoposide (48 h, 25 μM, Tava classics), MG132 (48 h, 10 μM), ALLN (48 h, […]), betulinic acid (24 h, 10 μM), Hoechst 33343 (24 h, 0.2 μM), camptothecine (24 h, 15 μM), lactacystin (48 h, 60 μM), BAY 11-8072 (24 h, 30 μM), staurosporine (24 h, 1.5 μM), bafilomycin A1 (48 h, 300 nM), arsenic trioxide (24 h, 30 μM), C2-ceramide (C2-C; 24 h, 60 μM), calyculin A (48 h, 30 nM), or tautomycin (48 h, […], Sigma) and/or salubrinal (48 h, […], Calbiochem).
CT26 cells (on a glass slide or in 12-well plates) were first washed with FACS buffer (1×PBS, 5% fetus bovine serum, and 0.1% sodium azide) and then incubated with rabbit anti-mouse CRT antibody (1:100, Stressgen) in FACS buffer at 4° C. for 30 min. Cells reacted with anti-rabbit IgG (H+L) Alexa fluor 488-conjugates (1:500) in FACS buffer at 4° C. for 30 min. After washing three times with FACS buffer, surface CRT was detected by cytofluorometric analysis on a FACS Vantage. In some experiments, cells were fixed with 4% paraformaldehyde, counterstained with Hoechst (2 μM; Sigma), followed by fluorescence microscopic assessment with a Leica IRE2 microscope equipped with a DC300F camera.

[6] = test system: CT26 tumour cells; test: Anti-tumour vaccination with treated (dying) CT26 cells and challenge with live tumour cells; format: in vivo, BALB/c mice; conditions: mouse, in vivo
[7] = test system: CT26 colon cancer cells; test: Calreticulin exposure with PP1/GADD34 inhibitory peptide (flow cytometry); format: cell-based, murine; conditions: 2 hours
Experimental: (§1) HCT116 cells (FIG. 7A) or CT26 cells (FIG. 7B) were cultured in complete mediums supplemented with 10% fetal calf serum alone or in the presence of the control peptide (VKKKKIKREIKI-lkaravafsekv) or the PP1/GADD34 inhibitory peptide (VKKKKIKREIKI-lkarkvrfsekv, denominated PP1 peptide) for 2 hours. Cells were washed twice with PBS and fixed in PFA (4% w/v) for 5 min. Cells were stained with an antibody against calreticulin (pAb from Abcam, ab2907) at 1:200 dilution or isotype control, in staining buffer (PBS, 1% FCS) for 30 min on ice, followed by washing. An anti-rabbit Alexa fluor 488 immunoglobulin conjugate (Molecular Probes-Invitrogen) diluted at 1:500 was added for an additional 30 min on ice before washing and analysed by flow cytometry (FACScan, Becton Dickinson). Propidium Iodide (50 μg/ml, Becton Dickinson) was added to the samples to label and exclude permeabilized (dead) cells.

[8] = test system: HCT116 colon cancer cell; test: as above; format: cell-based, human; conditions: 2 hours
Experimental: as §1

[9] = test system: CT26 cells; test: Phagocytosis of tumour cells by dendritic cells (DC); format: cell-based, BALB/c mice
Experimental: BM cells were flushed from the tibias and femurs of BALB/c mice with culture medium composed of RPMI 1640 medium (Invitrogen Life Technologies) supplemented with 10% heat-inactivated FBS (Invitrogen), sodium pyruvate, 50 μM 2-ME (Sigma), 10 mM HEPES (pH 7.4), and penicillin/streptomycin (Invitrogen). After one centrifugation, BM cells were resuspended in Tris-ammonium chloride for 2 min to lyse RBC. After one more centrifugation, BM cells (1×10^6 cells/ml) were cultured in medium supplemented with 100 ng/ml recombinant mouse FLT3 ligand (R&D systems) in 6-well plates (Costar Corning). After 7 days, the non-adherent and loosely adherent cells were harvested with Versene, washed and transferred in 12-well plates (1.5×10^6 cells/plate) for cocultures with tumour cells.
In 12-well plates, […] adherent CT26 cells were labelled with Celltracker Green (Calbiochem) and then incubated with drugs. In some experiments viable CT26 were coated with 2 μg/10^6 cells of chicken anti-CRT antibody (ABR affinity bioreagents) or an isotype control for 30 min prior to washing and feeding to dendritic cells Cs. Alternatively CT26 cells were coated with 2 μg/10^6 cells of rCRT on ice for 30 min and washed twice prior to addition to dendritic cells. Cells were then harvested, washed three times with medium supplemented with FBS and cocultured with immature DC for 2 hours at a ratio of 1:1 and 1:5. At the end of the incubation, cells were harvested with versene, pooled with non-adherent cells present in the supernatant, washed and stained with CD11c-FITC antibody. Phagocytosis was assessed by FACS analysis of double positive cells. Phagocytic indexes refer to the ratio between values obtained at 4° C. and values obtained at 37° C. of co-incubation between DC and tumour cells.

[10] = test system: DC; test: DC maturation ex vivo; format: cell-based; conditions: rCRT alone, over a large range of concentrations
[11] = test system: CT26 cells; test: Local immune response: footpad injection, IFN-γ secretion by draining lymph node cells; format: in vivo, Balb/c mice; conditions: foot pad injection
Experimental: FIG. 4C: Exogenous supply of CRT enhances the immunogenicity of CRT-negative dying cells. CT26 cells lacking CRT expression after depletion of CRT with a siRNA and mitoxantrone treatment or after mitomycin treatment were coated with rCRT (inserts) and then injected in the food pad, followed by assessment of the IFN-γsecretion by cells from the draining lymph nodes as in FIG. 4B.
Tumours were evaluated weekly, using a caliper.

O=C(/C=C/c1ccccc1)NC(NC(=S)Nc1cccc2cccnc12)C(Cl)(Cl)Cl (stereo not drawn) [salubrinal]
therapeutic effect of intratumoural injection, single agent, nu/nu mice [1]: no major therapeutic effect
CRT exposure, murine tumour cell lines [2]: induced CRT exposure
therapeutic effect of intratumoural injection, single agent, immunocompetent mice [3]: no major therapeutic effect
therapeutic effect combined with a cell death inducer (etoposide or mitomycin C), immunocompetent mice [3]: stable disease or complete tumour regression
CRT exposure, human tumour cell lines [4]: induced CRT exposure
CRT exposure at the cell surface [5]: efficiently induced
immunogenic cell death by PP1/GADD34 inhibition alone [6]: not sufficient to induce immunogenic cell death

VKKKKIKREIKI-LKARKVRFSEKV (VKKKKIKREIKILKARKVRFSEKV) [peptide comprising SEQ ID NO:4, fragment of GADD34 fused to a DPT-sh1 translocation motif]
exposure of calreticulin, CT26 [7]: capable of inducing the exposure of calreticulin
exposure of calreticulin, HCT116 [8]: capable of inducing the exposure of calreticulin

VKKKKIKREIKI-lkaravafsekv [mutant control peptide]
exposure of calreticulin, CT26 [7]: did not induce calreticulin exposure
exposure of calreticulin, HCT116 [8]: did not induce calreticulin exposure

B1: rCRT: recombinant CRT protein (rCRT), which binds to the surface of the cells (protein, UniProt P27797 18-417, looked up)
Calreticulin: EPAVYFKEQFLDGDGWTSRWIESKHKSDFGKFVLSSGKFYGDEEKDKGLQTSQDARFYALSASFEPFSNKGQTLVVQFTVKHEQNIDCGGGYVKLFPNSLDQTDMHGDSEYNIMFGPDICGPGTKKVHVIFNYKGKNVLINKDIRCKDDEFTHLYTLIVRPDNTYEVKIDNSQVESGSLEDDWDFLPPKKIKDPDASKPEDWDERAKIDDPTDSKPEDWDKPEHIPDPDAKKPEDWDEEMDGEWEPPVIQNPEYKGEWKPRQIDNPDYKGTWIHPEIDNPEYSPDPSIYAYDNFGVLGLDLWQVKSGTIFDNFLITNDEAYAEEFGNETWGVTKAAEKQMKDKQDEEQRLKEEEEDKKRKEEEEAEDKEDDEDKDEDEEDEEDKEEDEEEDVPGQAKDEL
therapeutic effect of intratumoural injection, single agent, nu/nu mice [1]: no major therapeutic effect
phagocytosis by DC and CRT expression after CRT-specific siRNA, with addition of rCRT [9]: could reverse the defect
effect of rCRT injected into a distant site on intratumourally injected etoposide ([3]; contralateral subcutaneous injection): did not ameliorate the antitumoural effects
therapeutic effect of intratumoural injection, single agent, immunocompetent mice [3]: no major therapeutic effect
therapeutic effect combined with a cell death inducer (etoposide or mitomycin C), immunocompetent mice [3]: able to cause tumour regression
DC maturation [10]: could not promote DC maturation
anti-cancer immune response to rCRT-coated cells without prior treatment with cell death inducers [6]: failed to elicit an anti-cancer immune response
anti-tumour immune response to etoposide-treated cells coated with rCRT [6]: elicited a vigorous anti-tumour immune response
immunogenicity of mitoxantrone-treated CT26 cells with CRT knock-down, complemented with rCRT [6]: restored
immunogenicity (interferon production by T cells from popliteal lymph node) of mitomycin-treated cells coated with rCRT [11]: greatly enhanced the immunogenicity
